ChEMBL document CHEMBL5113535, “The Design, Synthesis, and Evaluation of Novel 9-Arylxanthenedione-Based Allosteric Modulators for the δ-Opioid Receptor” (J Med Chem, 2022)

Target: T1, Delta-type opioid receptor (Homo sapiens, UniProt P41143)
Settings: CHO, filed as modulator, time 1.0 hrs

T1 sequence (P41143 whole entry): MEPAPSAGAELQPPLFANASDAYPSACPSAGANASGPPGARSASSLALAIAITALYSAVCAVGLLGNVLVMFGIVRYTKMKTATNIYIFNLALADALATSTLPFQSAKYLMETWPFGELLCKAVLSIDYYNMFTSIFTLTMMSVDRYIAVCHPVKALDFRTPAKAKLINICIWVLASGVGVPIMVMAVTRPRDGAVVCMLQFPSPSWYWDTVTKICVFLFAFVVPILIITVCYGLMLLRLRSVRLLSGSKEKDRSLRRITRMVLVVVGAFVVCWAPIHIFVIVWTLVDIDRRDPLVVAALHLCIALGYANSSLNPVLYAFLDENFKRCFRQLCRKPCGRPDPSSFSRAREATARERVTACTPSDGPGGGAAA

First: CC1CC(=O)C2=C(C1)OC1=C(C(=O)CC(C)C1)C2c1ccc(OCC2CCCCC2)cc1 (configuration not stated)
Second: CC1(C)CC(=O)C2=C(C1)OC1=C(C(=O)CC(C)(C)C1)C2c1ccc(OCC2CCCC2)cc1
The pKb of the first is higher: 5.83 for the first, 5.57 for the second.

Going from `Cc1ccccc1COc1ccc(C2C3=C(CC(C)(C)CC3=O)OC3=C2C(=O)CC(C)(C)C3)cc1F` to `Cc1ccccc1COc1ccc(C2C3=C(CC(C)(C)CC3=O)OC3=C2C(=O)CC(C)(C)C3)nc1`, the pKb falls from 6.01 to 4.89.

`CC(C)c1ccccc1COc1ccc(C2C3=C(CC(C)(C)CC3=O)OC3=C2C(=O)CC(C)(C)C3)cc1` and `CC1(C)CC(=O)C2=C(C1)OC1=C(C(=O)CC(C)(C)C1)C2c1ccc(OCc2ccccc2Br)cc1` are within 0.2 log units of each other in pKb: 6.08 for the first, 5.9 for the second.

`CC1(C)CC(=O)C2=C(C1)OC1=C(C(=O)CC(C)(C)C1)C2c1ccc(OCc2ccccc2C2CC2)cc1` and `CCc1ccccc1COc1ccc(C2C3=C(CC(C)(C)CC3=O)OC3=C2C(=O)CC(C)(C)C3)cc1` are within 0.2 log units of each other in pKb: 5.53 for the first, 5.5 for the second.

Compared with `CC1(C)CC(=O)C2=C(C1)OC1=C(C(=O)CC(C)(C)C1)C2c1ccc(OCC2CCC2)cc1`, `C#Cc1ccccc1COc1ccc(C2C3=C(CC(C)(C)CC3=O)OC3=C2C(=O)CC(C)(C)C3)cc1` is higher in pKb: 5.72 for the first, 6.18 for the second.

Target: T1, Delta-type opioid receptor
Assay: Agonist activity at human DOR expressed in CHO cells assessed as […] in ERK1/2 phosphorylation level
Type: functional, cell-based
Settings: not given

`C=CCN1C[C@H](C)N([C@H](c2ccc(C(=O)NCC)cc2)c2cccc(OC)c2)C[C@H]1C` and `CN1CC[C@@]2(c3cccc(O)c3)Cc3nc4ccccc4cc3C[C@@H]2C1` are within 1.5-fold of each other in EC50: 43.7 nM for the first, 31.6 nM for the second.
